Measurements reported in patent US7846970B2, “Hydroxycitric acid derivatives and skin external preparations containing the same” (Showa Denko K.K., priority 2004, dated 2010).

How the values were obtained:
[1] = test system: Human white preadipocytes; experiment: Test (2) of use in combination with caffeine and the like, triglyceride accumulation; format: cell-based; conditions: 50 μM, 4 days
Protocol: (§1) After differentiation into adipocytes had been observed, the culture medium was replaced with one that contained 50 μM of (b), or 100 μM of (i), or 50 μM of (j), or 50 μM and 100 μM of (b) and (i) respectively, or 50 μM and 50 μM of (b) and (j) respectively. The incubation was continued for another 4 days. The control was incubated using a culture medium that contained no test articles.

[2] = test system: Human white preadipocytes; experiment: Cell survival rate (Test Example 6); format: cell-based; conditions: 4 days, 50 μM
Protocol: as §1

[3] = test system: Human white preadipocytes
Protocol: (§4) Human white preadipocytes (available from Zen-Bio Inc.) were disseminated in two T-25 flasks and were incubated at 37° C. and 5% CO2 using a white preadipocyte culture medium (PM-1, available from Zen-Bio Inc.). After several days, microscopic observation confirmed that the cells had been confluent, and the medium was replaced with a human white preadipocyte differentiation medium (DM-1, available from Zen-Bio Inc.). After three days, the differentiation medium was changed to a white adipocyte medium (AM-1, available from Zen-Bio Inc.). Incubation was continued while renewing half of the white adipocyte medium every three days.
(§5) After differentiation into adipocytes had been observed, the culture media in the flasks were each replaced with one that contained 1 mM of the test article (a) or 0.05 mM of the test article (b). The incubation was continued for another 5 days.
(§6) After 5 days of incubation, the cells were released from the flask bottom by adding trypsin and were collected by centrifugation (at 1,000 rpm for 5 minutes). The cells collected were washed two times with Dulbecco's PBS (−), and were transferred to 1.5 ml tubes, followed by freezing and thawing. […]
(§7) The test article in the extract was determined by LC/MS, and the protein in the extract was determined by the Lowry method as described in Test Example 1.

Mouse 3T3-F442A cells [4] = experiment: Triglyceride accumulation test (1), oil red staining; format: cell-based; conditions: 100 μM, 4 days, differentiated 3T3-F442A adipocytes
Protocol: Mouse 3T3-F442A cells (available from DAINIPPON PHARMACEUTICAL CO., LTD.) were disseminated on a 96-well microplate and were incubated at 37° C. and 5% CO2 over a period of 2 weeks using a DMEM culture medium (available from Invitrogen) containing 10% by mass of FCS.
After differentiation of most cells into adipocytes had been observed with a microscope, the culture medium was replaced with one that contained 100 μM of any one of the test articles (a) to (c). The incubation was continued for another 4 days. The control was incubated using a culture medium that contained no test articles.
After 4 days of incubation, the cells were washed three times with Dulbecco's PBS (−). The triglyceride accumulated in the cells was determined by oil red staining.

[5] = test system: Human white preadipocytes; experiment: Triglyceride accumulation test (2), oil red staining; format: cell-based; conditions: 4 days
Protocol: (§2) After differentiation of most cells into adipocytes had been observed with a microscope, the culture medium was replaced with one that contained 100 μM or 1 mM of the test article (a), or 10 μM, 25 μM or 50 μM of the test article (b). The incubation was continued for another 4 days. The control was incubated using a culture medium that contained no test articles.
(§3) After 4 days of incubation, the cells were washed three times with Dulbecco's PBS (−). The triglyceride accumulated in the cells was determined by oil red staining. The cell survival rate was measured by a calorimetric method (570 nm) using alamar blue reagent (manufactured by Molecular Probe).

[6] = Skin permeation test (Test Example 1); format: in vitro ADME, minipig
Protocol: The above test articles, each 0.5% by mass, were dissolved separately in Dulbecco's PBS (−).
2-cm square skin pieces of minipig (Charles River Laboratories Inc. (United States of America)) were placed in the Netwell (manufactured by Corning Incorporated), and assay rings (Teflon® rings with a center opening) on which a silicon sealant had been applied were pressed and fixed to the epidermis of the skin. Subsequently, 2 ml of a skin culture medium (TOYOBO CO., LTD.) was added to a multiwell plate, and the Netwell was set such that skin lower portions would be soaked. Each of the test article solutions, 0.1 ml, was slowly poured into the opening of assay ring; when no leakage was confirmed, the units were sealed with multiplate seals and were allowed to stand in an incubator at 37° C. and 5% carbon dioxide.
After 4 hours, the test article solutions on the skin pieces were pipetted. The skin pieces were recovered from the Netwell, and distilled water in a washing bottle was poured thereover for washing. The assay rings were detached, and the central portions that had contacted with the solution were punched out with an 8 mm biopsy punch. The excised skin pieces were transferred to 1.5 ml tubes, and 1 ml of 0.5% trypsin solution was added to each tube. The trypsin solution was caused to permeate the skin piece for a day and a night at 4° C.
Next day, the trypsin solution was removed, and the skin pieces were washed three times each with 1 ml of distilled water and were heated in an incubator at 37° C. for 5 minutes, resulting in release of the epidermis. The epidermis that had been released and been floating was peeled with tweezers to separate the skin piece into the epidermis and the dermis. The epidermis and dermis were separately transferred to new 1.5 ml tubes and were heated in an incubator at 37° C. for 30 minutes.
Thereafter, the epidermis and the dermis were fed with 0.1 ml and 0.5 ml of distilled water, respectively, followed by freezing and thawing. […] Thus, a tissue extract was obtained.
400 μl of the reagent 4 was added to a sample tube containing 20 μl of the sample solution or the standard sample solution, followed by mixing. The mixture was allowed to stand at room temperature for at least 15 minutes. Thereafter, 40 μl of the reagent 3 was added and mixed together, and the mixture was allowed to stand at room temperature for at least 30 minutes. The absorbance at 750 nm was measured with a spectrophotometer, and the protein concentration in the sample solution was determined using a calibration curve obtained with the standard sample.

[7] = test system: Human white preadipocytes; experiment: Test for confirmation of breakdown of hydroxycitric acid derivative (amounts in cell extract, LC/MS); conditions: 1 mM test article, 5 days, human adipocytes
Protocol: as §4, §5, §6, §7

[8] = test system: Human white preadipocytes; experiment: Cell survival rate, alamar blue (Test Example 3); format: cell-based; conditions: 4 days
Protocol: as §2, §3

Mouse 3T3-F442A cells [9] = experiment: Triglyceride accumulation test (3): lowest concentration at which TG/cell survival ratio is not more than 80; format: cell-based; conditions: lowest tested concentration with TG/cell survival ratio not more than 80 (control 100); 4 days
Protocol: Likewise in Test Example 2, mouse 3T3-F442A cells (available from DAINIPPON PHARMACEUTICAL CO., LTD.) were disseminated on a 96-well microplate and were incubated at 37° C. and 5% CO2 over a period of 2 weeks using a DMEM culture medium (available from Invitrogen) containing 10% by mass of FCS.
After differentiation of most cells into adipocytes had been observed with a microscope, the culture medium was replaced with one that contained any one of the test articles (a), (b) and (d) to (h) in an amount of 40 μM, 50 μM, 100 μM, 150 μM, 200 μM, 300 μM, 400 μM, 500 μM or […]. The incubation was continued for another 4 days. The control was incubated using a culture medium that contained no test articles.
After 4 days of incubation, the cells were washed three times with Dulbecco's PBS (−). The triglyceride accumulated in the cells, and the cell survival rate were measured in similar manners as in Test Example 3.

Mouse 3T3-F442A cells [10] = experiment: Test (1) of use in combination with caffeine, triglyceride accumulation; format: cell-based; conditions: 0.05 mM (b) alone, which is the control (100%); 4 days
Protocol: Mouse 3T3-F442A cells were incubated in a similar manner as in Test Example 2. After differentiation into adipocytes had been observed, the culture medium was replaced with one that contained 0.05 mM and 0.1 mM of the test article (b) and the test article (i), respectively. The incubation was continued for another 4 days. The control was incubated using a culture medium that contained 0.05 mM of the test article (b).
After 4 days of incubation, the triglyceride accumulated in the cells was determined in a similar manner as in Test Example 2.

[11] = dermis, test article 0.5% by mass in Dulbecco's PBS (-), 0.1 ml, 4 hours, 37°C
[12] = epidermis, test article 0.5% by mass in Dulbecco's PBS (-), 0.1 ml, 4 hours, 37°C

Which results are given for `C[N+](C)(C)C[C@H](O)CC(=O)[O-].Cl` [(j), L-carnitine hydrochloride, reference compound]?
(1/2) × 100 (triglyceride amount / cell survival rate) [1]: 91; Accumulated triglyceride amount (% relative to control): 1 [1]: 93 % relative to control; Cell survival rate (% relative to control): 2 [2]: 102 % relative to control

With `CCCCCCCCCCCCCCCC(=O)OC(CC(=O)O)(C(=O)O)C(O)C(=O)O` (centres unmarked) [hydroxycitric acid-2-palmitate] as the compound, how does the “Breakdown within adipocytes (in words)” value [3] read?
The value was “broken down within adipocytes to generate hydroxycitric acid”.

Which results are given for “Hydroxycitric acid calcium salt [(a), reference compound]”?
Accumulated triglyceride amount (% relative to control) (Mouse 3T3-F442A cells [4]): 98 % relative to control; (1/2) × 100 (triglyceride amount / cell survival rate) ([5]; 100 μM): 98; Accumulated triglyceride amount (% relative to control): 1 ([5]; 100 μM): 86 % relative to control; (1/2) × 100 (triglyceride amount / cell survival rate) ([5]; 1 mM): 85; Accumulated triglyceride amount (% relative to control): 1 ([5]; 1 mM): 80 % relative to control; Determined value: amount of hydroxycitric acid in dermis [6, 11]: 0.2 nmol/mg skin protein; Determined value: amount of hydroxycitric acid in epidermis [6, 12]: 0.4 nmol/mg skin protein; Determined value: amount of hydroxycitric acid in cell extract [7]: 0.6 nmol/mg protein; Cell survival rate (% relative to control): 2 ([8]; 100 μM): 88 % relative to control; Cell survival rate (% relative to control): 2 ([8]; 1 mM): 94 % relative to control; Concentration for 20% reduction of TG amount relative to control (Mouse 3T3-F442A cells [9]): 1e+06 µM

For “Hydroxycitric acid monomethyl ester-2-palmitate sodium salt [(c)]”, which “Accumulated triglyceride amount (% relative to control)” value (Mouse 3T3-F442A cells [4]) is on record?
Its value is 84 % relative to control.

For “Hydroxycitric acid-2-behenate sodium salt [(h)]”, which “Concentration for 20% reduction of TG amount relative to control” value (Mouse 3T3-F442A cells [9]) is on record?
Its value is 40 µM.

For “Hydroxycitric acid-2-caprate sodium salt [(e)]”, which “Concentration for 20% reduction of TG amount relative to control” value (Mouse 3T3-F442A cells [9]) is on record?
Its value is 200 µM.

Which “Concentration for 20% reduction of TG amount relative to control” value (Mouse 3T3-F442A cells [9]) does the source give for “Hydroxycitric acid-2-laurate sodium salt [(f)]” here?
Its value is 150 µM.

For “Hydroxycitric acid-2-myristate sodium salt [(g)]”, which “Concentration for 20% reduction of TG amount relative to control” value (Mouse 3T3-F442A cells [9]) is on record?
The value was 100 µM.

With “Hydroxycitric acid-2-octanoate sodium salt [(d)]” as the compound, how does the “Concentration for 20% reduction of TG amount relative to control” value (Mouse 3T3-F442A cells [9]) read?
Its value is 200 µM.

With “Hydroxycitric acid-2-palmitate sodium salt [(b)]” as the compound, how does the “Accumulated triglyceride amount (% relative to control)” value (Mouse 3T3-F442A cells [4]) read?
The value was 52 % relative to control.

And the “(1/2) × 100 (triglyceride amount / cell survival rate)” value ([5]; 10 μM)?
The value was 78.

And the “Accumulated triglyceride amount (% relative to control): 1” value ([5]; 10 μM)?
Its value is 78 % relative to control.

And the “(1/2) × 100 (triglyceride amount / cell survival rate)” value ([5]; 25 μM)?
Its value is 71.

What about the “Accumulated triglyceride amount (% relative to control): 1” value ([5]; 25 μM) of the same compound?
Its value is 72 % relative to control.

And the “(1/2) × 100 (triglyceride amount / cell survival rate)” value ([5]; 50 μM)?
The value was 66.

And the “Accumulated triglyceride amount (% relative to control): 1” value ([5]; 50 μM)?
The value was 65 % relative to control.

And the “(1/2) × 100 (triglyceride amount / cell survival rate)” value [1]?
Its value is 75.

What about the “Accumulated triglyceride amount (% relative to control): 1” value [1] of the same compound?
The value was 75 % relative to control.

What about the “Determined value: amount of hydroxycitric acid-2-palmitate in dermis” value [6, 11] of the same compound?
Its value is 3.8 nmol/mg skin protein.

What about the “Determined value: amount of hydroxycitric acid-2-palmitate in epidermis” value [6, 12] of the same compound?
The value was 3.4 nmol/mg skin protein.

What about the “Skin permeation (in words)” value ([6]; minipig skin, compared with (a)) of the same compound?
The value was “can permeate the skin deeper into the dermis layer than hydroxycitric acid calcium salt (a)”.

And the “Cell survival rate (% relative to control): 2” value ([8]; 10 μM)?
Its value is 100 % relative to control.

And the “Cell survival rate (% relative to control): 2” value ([8]; 25 μM)?
The value was 101 % relative to control.

What about the “Cell survival rate (% relative to control): 2” value ([8]; 50 μM) of the same compound?
Its value is 98 % relative to control.

And the “Concentration for 20% reduction of TG amount relative to control” value (Mouse 3T3-F442A cells [9])?
The value was 50 µM.

And the “Accumulated triglyceride amount (% relative to control)” value (Mouse 3T3-F442A cells [10])?
Its value is 100 % relative to control.
